Test results as given in ChEMBL document CHEMBL1132638, “New (sulfonyloxy)piperazinyldibenzazepines as potential atypical antipsychotics: chemistry and pharmacological evaluation” (J Med Chem, 1999).

How the values were obtained:
[1] = Partition coefficient (logP); format: physicochemical; conditions: octanol/water
[2] = target: T1, Adrenergic receptor alpha-1 (Rattus norvegicus, UniProt P15823+P23944+P43140); test: In vitro binding affinity towards Alpha-1 adrenergic receptor by the displacement of [3H]prazosin radioligand in rat cortical homogenates
T1 sequence (P15823 whole entry): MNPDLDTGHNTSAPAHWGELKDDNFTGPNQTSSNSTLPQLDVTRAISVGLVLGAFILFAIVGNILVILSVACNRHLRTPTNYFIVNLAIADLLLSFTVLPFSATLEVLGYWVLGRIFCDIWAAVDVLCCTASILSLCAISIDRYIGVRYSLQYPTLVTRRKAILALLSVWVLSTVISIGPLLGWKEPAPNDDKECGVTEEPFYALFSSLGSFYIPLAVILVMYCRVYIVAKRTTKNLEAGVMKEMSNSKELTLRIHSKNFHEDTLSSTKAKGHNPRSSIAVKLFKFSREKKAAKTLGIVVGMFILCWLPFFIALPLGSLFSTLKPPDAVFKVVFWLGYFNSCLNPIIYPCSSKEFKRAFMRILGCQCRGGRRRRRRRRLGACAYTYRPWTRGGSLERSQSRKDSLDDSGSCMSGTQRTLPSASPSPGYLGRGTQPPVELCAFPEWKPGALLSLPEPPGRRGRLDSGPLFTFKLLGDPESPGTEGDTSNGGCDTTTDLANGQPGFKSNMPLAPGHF
T1 sequence (P23944 whole entry): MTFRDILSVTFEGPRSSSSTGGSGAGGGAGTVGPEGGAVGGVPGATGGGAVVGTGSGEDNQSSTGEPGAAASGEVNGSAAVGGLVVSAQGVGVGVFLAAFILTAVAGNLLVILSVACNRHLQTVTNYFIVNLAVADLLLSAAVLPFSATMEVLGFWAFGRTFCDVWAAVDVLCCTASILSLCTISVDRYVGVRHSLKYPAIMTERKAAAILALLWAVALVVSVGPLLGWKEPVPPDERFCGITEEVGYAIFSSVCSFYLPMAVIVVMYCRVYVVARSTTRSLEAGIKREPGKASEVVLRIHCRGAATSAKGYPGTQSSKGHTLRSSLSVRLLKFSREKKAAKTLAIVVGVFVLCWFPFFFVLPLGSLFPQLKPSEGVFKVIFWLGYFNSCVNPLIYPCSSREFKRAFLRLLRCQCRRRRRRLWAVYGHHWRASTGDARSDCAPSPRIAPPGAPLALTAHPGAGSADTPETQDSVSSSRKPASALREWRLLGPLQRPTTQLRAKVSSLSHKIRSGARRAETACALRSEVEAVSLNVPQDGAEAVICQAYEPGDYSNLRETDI
T1 sequence (P43140 whole entry): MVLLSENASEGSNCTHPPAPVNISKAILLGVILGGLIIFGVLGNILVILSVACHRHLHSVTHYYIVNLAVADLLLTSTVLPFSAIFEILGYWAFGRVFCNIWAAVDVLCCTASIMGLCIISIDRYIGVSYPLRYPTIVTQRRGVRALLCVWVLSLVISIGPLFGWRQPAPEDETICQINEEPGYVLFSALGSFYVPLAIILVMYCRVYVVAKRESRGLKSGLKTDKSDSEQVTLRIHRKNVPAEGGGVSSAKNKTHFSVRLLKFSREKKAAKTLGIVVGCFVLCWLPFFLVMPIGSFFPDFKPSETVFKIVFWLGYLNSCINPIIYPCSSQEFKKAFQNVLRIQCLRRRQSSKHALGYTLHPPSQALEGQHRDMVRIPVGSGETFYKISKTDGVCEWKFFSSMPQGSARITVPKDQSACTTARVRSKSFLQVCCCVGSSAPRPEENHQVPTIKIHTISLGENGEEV

[3] = target: D(3) dopamine receptor (Homo sapiens, UniProt P35462)
Description: Binding affinity towards human Dopamine receptor D3

[4] = target: T2, Muscarinic acetylcholine receptor M1 (Homo sapiens, UniProt P11229); test: Inhibition of binding of 1.0 nM [3H]pirenzepine to cloned human Muscarinic acetylcholine receptor M1 expressed in membranes from CHO-K1 cells; format: cell-based
T2 sequence (P11229 whole entry): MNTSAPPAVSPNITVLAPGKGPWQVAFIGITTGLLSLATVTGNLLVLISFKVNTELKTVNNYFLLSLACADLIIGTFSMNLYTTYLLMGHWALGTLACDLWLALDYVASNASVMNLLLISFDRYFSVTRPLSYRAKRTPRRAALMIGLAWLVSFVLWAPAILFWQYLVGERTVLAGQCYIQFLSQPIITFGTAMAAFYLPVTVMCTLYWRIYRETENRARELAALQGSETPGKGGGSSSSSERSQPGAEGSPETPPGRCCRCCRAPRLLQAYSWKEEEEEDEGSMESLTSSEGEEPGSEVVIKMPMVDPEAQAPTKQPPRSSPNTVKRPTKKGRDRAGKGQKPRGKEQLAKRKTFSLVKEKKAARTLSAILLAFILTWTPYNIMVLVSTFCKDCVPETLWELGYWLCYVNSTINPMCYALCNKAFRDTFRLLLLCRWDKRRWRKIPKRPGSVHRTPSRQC

[5] = system: Mus musculus; test: Inhibition of apomorphine induced climbing affects in mice by administering the compound perorally in mice; format: functional
[6] = system: Rattus norvegicus; test: Compound is measured for inhibition of catalepsy in rats by subcutaneous administration of compound; format: functional; conditions: sc
[7] = system: Rattus norvegicus; test: Compound is measured for inhibition of catalepsy in rats by peroral administration of compound; format: functional; conditions: po
[8] = target: T3, D(4) dopamine receptor (Homo sapiens, UniProt P21917); test: Compound was tested in vitro for its binding affinity towards human Dopamine receptor D4.2
T3 sequence (P21917 whole entry): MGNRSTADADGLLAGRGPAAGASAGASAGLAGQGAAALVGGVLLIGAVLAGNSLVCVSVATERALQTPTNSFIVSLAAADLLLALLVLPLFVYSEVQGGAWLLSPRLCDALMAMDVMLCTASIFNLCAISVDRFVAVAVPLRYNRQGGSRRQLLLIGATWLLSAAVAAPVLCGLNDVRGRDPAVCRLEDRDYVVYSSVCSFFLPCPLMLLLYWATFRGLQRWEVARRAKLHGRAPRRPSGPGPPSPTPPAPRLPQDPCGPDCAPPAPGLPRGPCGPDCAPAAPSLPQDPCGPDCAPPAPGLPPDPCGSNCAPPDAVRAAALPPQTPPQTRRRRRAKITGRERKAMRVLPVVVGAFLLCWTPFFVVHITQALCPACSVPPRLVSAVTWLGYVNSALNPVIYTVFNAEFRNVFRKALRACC

[9] = system: Rattus norvegicus; test: Compound is measured for inhibition of catalepsy in rat by peroral administration of compound; format: functional; conditions: po
[10] = organism: Rattus norvegicus; test: Ex vivo accumulation of L-DOPA was measured in striatum of rats
[11] = system: Rattus norvegicus; test: Inhibition of catalepsy in rat by subcutaneous administration of compound; format: functional; conditions: sc
[12] = system: Mus musculus; test: Inhibition of apomorphine induced climbing affects in mice by administering the compound subcutaneously in mice; format: functional; conditions: sc
[13] = Delta ED50 value by Subcutaneous administration (ED50 catalepsy-ED50 Climbing); format: functional
[14] = target: T3, D(4) dopamine receptor; test: Binding affinity towards human D4.2 receptor
[15] = in vivo; conditions: sc
Description: Therapeutic ratio by Subcutaneous dose of administration (quotient ED50 catalepsy/ED50 climbing)

[16] = Antipsychotic activity was determined from subcutaneous administration of compound in mice (ED50 catalepsy-ED50 Climbing); format: functional
[17] = system: Mus musculus; test: Compound is measured for inhibition of apomorphine induced climbing affects in mice by administering the compound subcutaneously (sc) in mice; format: functional
[18] = target: T4, 5-hydroxytryptamine receptor 2C (Rattus norvegicus, UniProt P08909)
T4 sequence (P08909 whole entry): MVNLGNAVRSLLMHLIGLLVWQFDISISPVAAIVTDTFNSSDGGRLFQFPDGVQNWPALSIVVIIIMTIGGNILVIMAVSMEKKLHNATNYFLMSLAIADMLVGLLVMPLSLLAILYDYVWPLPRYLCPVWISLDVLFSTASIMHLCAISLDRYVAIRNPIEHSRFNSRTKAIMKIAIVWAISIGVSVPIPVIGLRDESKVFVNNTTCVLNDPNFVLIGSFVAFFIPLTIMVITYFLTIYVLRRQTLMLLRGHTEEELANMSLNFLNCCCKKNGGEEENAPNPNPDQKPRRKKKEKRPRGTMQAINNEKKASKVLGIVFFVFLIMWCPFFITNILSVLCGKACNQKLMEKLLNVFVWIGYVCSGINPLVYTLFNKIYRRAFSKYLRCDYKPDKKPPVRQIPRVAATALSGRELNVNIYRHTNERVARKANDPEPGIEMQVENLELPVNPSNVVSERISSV
Description: Binding affinity towards 5-HT2C receptor from rat using [3H]mesulergine as radioligand

[19] = target: T1, Adrenergic receptor alpha-1; test: Binding affinity towards alpha-1 adrenergic receptor from rat brain membranes using [3H]prazosin as radioligand
[20] = target: 5-hydroxytryptamine receptor 2A (Rattus norvegicus, UniProt P14842); test: biochemical
Description: Binding affinity towards 5-hydroxytryptamine 2A receptor from rat frontal cortex using [3H]ketanserin as radioligand

[21] = target: D(1A) dopamine receptor (Rattus norvegicus, UniProt P18901); test: biochemical
Description: Binding affinity towards D1 CNS receptor of rat corpus striatum using [3H]SCH-23390 as radioligand

[22] = Therapeutic ratio by Peroral dose of administration (quotient ED50 catalepsy/ED50 climbing); format: ADME, organism-based; conditions: in vivo, po; read-out: Therapeutic ratio
[23] = Delta ED50 value by peroral administration (ED50 catalepsy-ED50 Climbing); format: functional
[24] = Mus musculus, po, read-out: ED50

Sequence of D(1A) dopamine receptor (P18901 whole entry): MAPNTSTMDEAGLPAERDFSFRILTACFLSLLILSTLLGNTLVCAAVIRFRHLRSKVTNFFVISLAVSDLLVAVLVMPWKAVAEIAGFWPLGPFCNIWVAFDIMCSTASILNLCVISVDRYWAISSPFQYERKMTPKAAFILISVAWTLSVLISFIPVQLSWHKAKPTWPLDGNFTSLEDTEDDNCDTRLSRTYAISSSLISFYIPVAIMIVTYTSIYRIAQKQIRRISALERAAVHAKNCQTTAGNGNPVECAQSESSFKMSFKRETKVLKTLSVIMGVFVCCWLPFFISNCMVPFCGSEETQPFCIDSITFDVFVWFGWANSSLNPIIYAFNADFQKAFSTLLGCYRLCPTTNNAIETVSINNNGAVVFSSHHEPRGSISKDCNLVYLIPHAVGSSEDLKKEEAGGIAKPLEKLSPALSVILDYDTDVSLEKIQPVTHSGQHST
Sequence of 5-hydroxytryptamine receptor 2A (P14842 whole entry): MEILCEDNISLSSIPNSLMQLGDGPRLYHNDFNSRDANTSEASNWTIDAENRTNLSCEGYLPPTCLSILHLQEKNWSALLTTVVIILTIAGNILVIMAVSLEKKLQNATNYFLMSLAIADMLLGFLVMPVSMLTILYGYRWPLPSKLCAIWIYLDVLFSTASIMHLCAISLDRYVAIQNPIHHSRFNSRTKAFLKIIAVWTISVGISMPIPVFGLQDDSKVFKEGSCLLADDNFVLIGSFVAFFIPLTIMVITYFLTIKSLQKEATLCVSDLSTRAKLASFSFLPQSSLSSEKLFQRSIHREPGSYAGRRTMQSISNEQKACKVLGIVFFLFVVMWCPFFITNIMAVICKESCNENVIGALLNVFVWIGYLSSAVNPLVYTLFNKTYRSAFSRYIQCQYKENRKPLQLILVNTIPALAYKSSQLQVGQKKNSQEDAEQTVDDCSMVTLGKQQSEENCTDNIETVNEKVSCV
Sequence of D(3) dopamine receptor (P35462 whole entry): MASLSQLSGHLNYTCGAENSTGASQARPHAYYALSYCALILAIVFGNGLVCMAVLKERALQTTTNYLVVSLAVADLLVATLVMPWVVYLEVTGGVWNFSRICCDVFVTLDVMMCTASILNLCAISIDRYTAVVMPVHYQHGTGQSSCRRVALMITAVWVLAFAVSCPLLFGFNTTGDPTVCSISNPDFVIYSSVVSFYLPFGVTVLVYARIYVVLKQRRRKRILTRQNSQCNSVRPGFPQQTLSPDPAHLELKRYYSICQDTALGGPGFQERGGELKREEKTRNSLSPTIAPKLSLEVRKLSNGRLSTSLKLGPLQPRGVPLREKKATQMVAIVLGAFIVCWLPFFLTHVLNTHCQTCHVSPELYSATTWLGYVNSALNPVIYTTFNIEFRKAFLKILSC

CN1CCN(C2=Nc3cc(O)ccc3Nc3ccccc32)CC1
logP [1]: 2.21

CN1CCN(C2=Nc3ccccc3Oc3ccc(Cl)cc32)CC1 [LOXAPINE]
IC50 [2]: 0.018 µM | IC50 [3]: 0.022 µM | IC50 [4]: 5.5 µM | ED50 [5]: 0.04 mg/kg | ED50 [5, 24]: 0.04 mg/kg | ED50 [6]: 0.35 mg/kg | ED50 [7]: < 1 mg/kg | IC50 [8]: 0.014 µM

COc1ccc2c(c1)C(N1CCN(C)CC1)=Nc1ccccc1N2
logP [1]: 2.71

CN1CCN(C2=Nc3cc(Cl)ccc3Nc3ccccc32)CC1 [CLOZAPINE]
ED50 [9]: > 100 mg/kg | ED50 [10]: 17 mg/kg | logP [1]: 3.48 | ED50 [5, 24]: 17 mg/kg | ED50 [11]: > 32.6 mg/kg | ED50 [12]: 5.6 mg/kg

CN1CCN(C2=Nc3cc(OS(=O)(=O)C(F)(F)F)ccc3Nc3ccccc32)CC1
logP [1]: 3.58

COc1ccc2c(c1)N=C(N1CCN(C)CC1)c1ccccc1N2
logP [1]: 2.71

CN1CCN(C2=Nc3ccccc3Nc3ccc(Cl)cc32)CC1 [ISOCLOZAPINE]
IC50 [3]: 0.12 µM | Delta ED50 [13]: 0.3 mg/kg | logP [1]: 3.48 | ED50 [11]: 2 mg/kg | ED50 [12]: 1.7 mg/kg | IC50 [14]: 0.11 µM

CN1CCN(C2=Nc3ccccc3Sc3ccc(Cl)cc32)CC1 [CLOTHIAPINE]
selectivity ratio [15]: 2.7 | ED50 [11]: 0.72 mg/kg | Delta ED50 [16]: 0.45 mg/kg | ED50 [17]: 0.27 mg/kg

CN1CCN(C2=Nc3cc(Cl)ccc3Nc3ccc(OS(=O)(=O)C(F)(F)F)cc32)CC1
IC50 [18]: 0.013 µM | IC50 [19]: 0.0071 µM | selectivity ratio [15]: > 6.1 | IC50 [3]: 0.052 µM | Delta ED50 [13]: >41.8 mg/kg | logP [1]: 4.3 | IC50 [4]: 0.054 µM | IC50 [20]: 0.023 µM | ED50 [11]: > 50 mg/kg | IC50 [21]: 0.2 µM | ED50 [12]: 8.2 mg/kg | IC50 [14]: 0.49 µM

CN1CCN(C2=Nc3ccccc3Nc3ccc(OS(C)(=O)=O)cc32)CC1
IC50 [18]: 1.2 µM | IC50 [19]: 0.16 µM | logP [1]: 1.8 | IC50 [21]: 2.1 µM

CN1CCN(C2=Nc3ccccc3Sc3ccc(OS(=O)(=O)C(F)(F)F)cc32)CC1
IC50 [18]: 0.28 µM | IC50 [19]: 0.0036 µM | selectivity ratio [15]: 11.5 | IC50 [3]: 0.008 µM | Delta ED50 [13]: 27.4 mg/kg | logP [1]: 4.04 | IC50 [4]: 0.46 µM | IC50 [20]: 0.11 µM | ED50 [11]: 30 mg/kg | IC50 [21]: 0.1 µM | ED50 [12]: 2.6 mg/kg | IC50 [14]: 0.57 µM

CN1CCN(C2=Nc3ccccc3Nc3ccc(OS(=O)(=O)C(F)(F)F)cc32)CC1
ED50 [9]: > 100 mg/kg | selectivity ratio [15]: > 20 | selectivity ratio [22]: > 9 | IC50 [3]: 0.053 µM | Delta ED50 [13]: >41.9 mg/kg | logP [1]: 3.58 | IC50 [4]: > 1 µM | Delta ED50 [23]: >89 mg/kg | ED50 [5, 24]: 11 mg/kg | IC50 [20]: 0.043 µM | ED50 [11]: > 44 mg/kg | ED50 [12]: 2.1 mg/kg | IC50 [14]: 0.12 µM

O=C(CCCN1CCC(O)(c2ccc(Cl)cc2)CC1)c1ccc(F)cc1 [HALOPERIDOL]
ED50 [9]: 1.5 mg/kg | ED50 [10]: 0.1 mg/kg | logP [1]: 3.98 | ED50 [11]: 0.25 mg/kg | ED50 [12]: 0.1 mg/kg

CN1CCN(C2=Nc3ccccc3Nc3ccc(O)cc32)CC1
logP [1]: 2.21

CN1CCN(C2=Nc3cc(OS(C)(=O)=O)ccc3Nc3ccccc32)CC1
IC50 [18]: 7.4 µM | IC50 [19]: 8.7 µM | logP [1]: 1.8 | IC50 [4]: 0.038 µM | IC50 [20]: 4.9 µM | IC50 [21]: 22 µM
